Consider 24 molecules from patent US9315451B2, “Tetracycline compounds” (priority 2009, dated 2016).

Structures are written as SMILES. Like-named read-outs stand apart in the source and are kept apart here. Where only a bound is given, the exact number is not on record here.

What all share (type): in vivo
The subject of data set [1] is S. aureus Smith (ATCC 13709). Put plainly: Mouse systemic infection (septicemia) model, S. aureus Smith. As to conditions: Staphylococcus aureus; for responders at 3 mg/kg: ATCC13709, iv, read-out: SA Smith septicemia survival IV (3 mg/kg); for responders at 3 mg/kg / responders at 30 mg/kg: 48 h; for responders at 30 mg/kg: ATCC13709, po, read-out: SA Smith septicemia survival PO (30 mg/kg); for ED50: ATCC13709, dose that prevents 50% of the mice from death, 48 hours. How it is done: Mouse Systemic Infection Protocol-S. aureus Smith Septicemia
Compounds were screened for antibacterial activity in vivo in a mouse systemic infection (septicemia) model. In the model, CD-1 female mice (18-22 grams) were injected IP with a S. aureus Smith (ATCC 13709) inoculum that results in 0% survival within 24 to 48 hours. The bacterial dose required to achieve this effect was previously established through virulence studies. At one hour post infection, mice received either […] IV or […] PO. Typically, six mice were treated per dose group. Animal survival was assessed and recorded for 48 hours. Percent survival at 48 hours was recorded and PD50 (mg/kg) was determined for each compound tested.

The test system of data set [2] is Uropathogenic E. coli EC200. Nature of the data set: Murine kidney infection model, uropathogenic E. coli EC200. As to conditions: Escherichia coli, po, 36 h, BALB/c mice, PO @ 3 mpk; read-out: EC200 UTI PO, log10 reduction in CFUs in the kidney versus untreated controls. The procedure: Kidney Infection Models for Uropathogenic E. coli EC200 and K. pneumoniae ESBL Isolate KP453
Compounds were tested in a BALB/c murine kidney infection model challenged with tetracycline-resistant E. coli strain uropathogenic […] via intravenous injection. […] For IV administration test compound was dosed at 3 mg/kg. Thirty-six hours following initiation of treatment, mice were euthanized and bacterial reduction in the kidney was quantified by plating kidney homogenates. Results are reported in Table D as log10 reduction in colony forming units (CFUs) in the kidney versus untreated controls (receiving no test compound).

Data set [3] can be described thus: Pharmacokinetic studies in rats. As to conditions: rat, plasma, male Sprague Dawley rats, fasted. How it is done: Pharmacokinetic Studies in Rats Test compounds were evaluated in fasted (no food for 18 hours prior to dosing) male Sprague Dawley rats (3 animals per group) by administration of 1 mg/kg intravenously into the jugular vein and […] by oral gavage. Ten plasma samples were drawn for each dosing route up to 24 hours into heparin-coated vacutainer tubes. The plasma concentrations of the test compounds were quantified by LC/MS/MS using an internal standards. WinNONLIN was used to determine PK parameters ±standard deviation (AUC, Cmax, CL, Vss and % oral bioavailabilty (% F) and are set forth in Table F.

Where [4] appears, read: CD-1 female mice, IV 3 mg/kg one hour post infection, survival at 48 hours.
The mark [5] stands for this setting: CD-1 female mice, PO 30 mg/kg one hour post infection, survival at 48 hours.
Setting [6] is: CD-1 female mice, PO, read-out: SA Smith septicemia PD50 PO.

For `CN(C)[C@@H]1C(O)=C(C(N)=O)C(=O)[C@@]2(O)C(O)=C3C(=O)c4c(O)cc(CN5CC6CCCC6C5)c(Cl)c4C[C@H]3C[C@@H]12` (stereo partly drawn) [Compound S15-13-184], the responders at 3 mg/kg in data set [1] (setting [4]) turned out to be 17%. Also, the responders at 30 mg/kg in data set [1] (setting [5]) was 0%.
In the case of `CN(C)[C@@H]1C(O)=C(C(N)=O)C(=O)[C@@]2(O)C(O)=C3C(=O)c4c(O)cc(CN5CCCCCC5)c(C(F)(F)F)c4C[C@H]3C[C@@H]12` [Compound S25-11-56], the responders at 3 mg/kg in data set [1] (setting [4]) turned out to be 67%. For the same molecule, the responders at 30 mg/kg in data set [1] (setting [5]) was determined as 33%.
The like results for `CN(C)[C@@H]1C(O)=C(C(N)=O)C(=O)[C@@]2(O)C(O)=C3C(=O)c4c(O)cc(CNC5Cc6ccccc6C5)c(F)c4C[C@H]3C[C@@H]12` [Compound S1-14-90] were, in that order, 33% and 0%.
The like results for `CN(C)[C@@H]1C(O)=C(C(N)=O)C(=O)[C@@]2(O)C(O)=C3C(=O)c4c(O)cc(CN(CC5CC5)C5CC5)c(F)c4C[C@H]3C[C@@H]12` [Compound S2-4-41] were, in that order, 0% and 0%.
Take `C[C@H]1CCC[C@H](C)N1Cc1cc(O)c2c(c1Cl)C[C@H]1C[C@H]3[C@H](N(C)C)C(O)=C(C(N)=O)C(=O)[C@@]3(O)C(O)=C1C2=O` [Compound S15-13-225]: in data set [1] (setting [4]), the responders at 3 mg/kg is 100%. The responders at 30 mg/kg in data set [1] (setting [5]) turned out to be 100%.
In the case of `CN(Cc1ccccc1)Cc1cc(O)c2c(c1F)C[C@H]1C[C@H]3[C@H](N(C)C)C(O)=C(C(N)=O)C(=O)[C@@]3(O)C(O)=C1C2=O` [Compound S1-14-46], the responders at 3 mg/kg in data set [1] (setting [4]) worked out at 0%. For the same molecule, in data set [1] (setting [5]), the responders at 30 mg/kg amounted to 0%.
Turning to `CN(C)[C@@H]1C(O)=C(C(N)=O)C(=O)[C@@]2(O)C(O)=C3C(=O)c4c(O)cc(CN5CCCC5)c(Cl)c4C[C@H]3C[C@@H]12` [Compound S15-13-187], the responders at 3 mg/kg in data set [1] (setting [4]) stood at 100%. Moreover, the responders at 30 mg/kg in data set [1] (setting [5]) worked out at 100%. For the same molecule, the log reduction at 3 mg/kg in data set [2] amounted to 3.46.
With `CN(C)[C@@H]1C(O)=C(C(N)=O)C(=O)[C@@]2(O)C(O)=C3C(=O)c4c(O)cc(CN5CCCCC5(C)C)c(F)c4C[C@H]3C[C@@H]12` [Compound S6-4-1], in data set [1] (setting [4]), the responders at 3 mg/kg was 100%. Moreover, the responders at 30 mg/kg in data set [1] (setting [5]) was 100%.
Consider `CN(C)[C@@H]1C(O)=C(C(N)=O)C(=O)[C@@]2(O)C(O)=C3C(=O)c4c(O)cc(CNCC56CC7CC(CC(C7)C5)C6)c(F)c4C[C@H]3C[C@@H]12` [Compound S1-14-25], for which the responders at 3 mg/kg in data set [1] (setting [4]) came out at 33%. In addition, in data set [1] (setting [5]), the responders at 30 mg/kg came out at 17%.
As to `CN(C)[C@@H]1C(O)=C(C(N)=O)C(=O)[C@@]2(O)C(O)=C3C(=O)c4c(O)cc(CNC5C6CC7CC(C6)CC5C7)c(F)c4C[C@H]3C[C@@H]12` (stereo partly drawn) [Compound S1-14-28], in data set [1] (setting [4]), the responders at 3 mg/kg is 33%. In data set [1] (setting [5]), the responders at 30 mg/kg worked out at 17%.
For `CCN(Cc1cc(O)c2c(c1F)C[C@H]1C[C@H]3[C@H](N(C)C)C(O)=C(C(N)=O)C(=O)[C@@]3(O)C(O)=C1C2=O)C1(C)CC1` [Compound S1-14-36] the same measures were 33% and 0%.
Turning to `C[C@@H]1CCC[C@H](C)N1Cc1cc(O)c2c(c1F)C[C@H]1C[C@H]3[C@H](N(C)C)C(O)=C(C(N)=O)C(=O)[C@@]3(O)C(O)=C1C2=O` [Compound S2-4-66], the responders at 3 mg/kg in data set [1] (setting [4]) worked out at 100%. Moreover, the responders at 30 mg/kg in data set [1] (setting [5]) came out at 100%. In addition, in data set [1] (setting [6]), the ED50 is 8.5 mg/kg.
`CN(C)[C@@H]1C(O)=C(C(N)=O)C(=O)[C@@]2(O)C(O)=C3C(=O)c4c(O)cc(CN(C)C(C)(C)C5CC5)c(F)c4C[C@H]3C[C@@H]12` [Compound S2-4-29]: the clearance in data set [3] (IV 1 mg/kg, read-out: Cl, IV Rat PK) stood at 26.5 mL/min/kg. Moreover, the bioavailability (in general, the share of a dose that reaches the circulation, judged against a reference dose that is usually intravenous) in data set [3] (oral 10 mg/kg vs IV 1 mg/kg, read-out: % F (oral bioavailability), Oral Rat PK) was 25.4%. Also, the AUC (in general, the area under the concentration-time curve, a measure of exposure) stood at 616 ng·h/mL in data set [3] (IV 1 mg/kg, read-out: AUC, IV Rat PK) and 1600 ng·h/mL in data set [3] (oral gavage 10 mg/kg, read-out: AUC, Oral Rat PK). Besides, the Cmax (in general, the peak of the concentration-time curve) in data set [3] (IV 1 mg/kg, read-out: Cmax, IV Rat PK) amounted to 112 ng/mL. Moreover, the responders at 3 mg/kg in data set [1] (setting [4]) turned out to be 100%. For the same molecule, in data set [1] (setting [5]), the responders at 30 mg/kg amounted to 100%. In addition, the ED50 in data set [1] (CD-1 female mice, IV, read-out: SA Smith septicemia PD50 IV) worked out at 1 mg/kg; in data set [1] (setting [6]), 3.5 mg/kg.
Consider `CN(C)[C@@H]1C(O)=C(C(N)=O)C(=O)[C@@]2(O)C(O)=C3C(=O)c4c(O)cc(CN(CCF)CC5CC5)c(F)c4C[C@H]3C[C@@H]12` [Compound S1-14-31], for which, in data set [1], the responders at 3 mg/kg was found to be 0% and the responders at 30 mg/kg came to 0%.
For `CN(C)[C@@H]1C(O)=C(C(N)=O)C(=O)[C@@]2(O)C(O)=C3C(=O)c4c(O)cc(CN5CCC(C)(C)CC5)c(Cl)c4C[C@H]3C[C@@H]12` [Compound S15-13-16], the responders at 3 mg/kg in data set [1] (setting [4]) stood at 33%. Also, the responders at 30 mg/kg in data set [1] (setting [5]) came to 17%.
Regarding `CN(C)[C@@H]1C(O)=C(C(N)=O)C(=O)[C@@]2(O)C(O)=C3C(=O)c4c(O)cc(CN[C@@H]5CC6CCC5C6)c(Cl)c4C[C@H]3C[C@@H]12` (stereo partly drawn) [Compound S15-13-23], the responders at 3 mg/kg in data set [1] (setting [4]) amounted to 83%. Also, the responders at 30 mg/kg in data set [1] (setting [5]) came to 50%.
The like results for `C[C@@H]1CCC[C@H](C)N1Cc1cc(O)c2c(c1Cl)C[C@H]1C[C@H]3[C@H](N(C)C)C(O)=C(C(N)=O)C(=O)[C@@]3(O)C(O)=C1C2=O` [Compound S15-13-221] were, in that order, 33% and 50%.
In the case of `CN(C)[C@@H]1C(O)=C(C(N)=O)C(=O)[C@@]2(O)C(O)=C3C(=O)c4c(O)cc(CN(C)C(C)(C)CC(C)(C)C)c(F)c4C[C@H]3C[C@@H]12` [Compound S2-4-30], the responders at 3 mg/kg in data set [1] (setting [4]) was determined as 33%. In addition, the ED50 in data set [1] (setting [6]) was more than 60 mg/kg.
As to `C[C@H]1CCCN1Cc1cc(O)c2c(c1C(F)(F)F)C[C@H]1C[C@H]3[C@H](N(C)C)C(O)=C(C(N)=O)C(=O)[C@@]3(O)C(O)=C1C2=O` [Compound S25-11-48], the responders at 3 mg/kg in data set [1] (setting [4]) turned out to be 100%. Also, the responders at 30 mg/kg in data set [1] (setting [5]) stood at 100%.
On to `C[C@@H]1CC[C@H](C)N1Cc1cc(O)c2c(c1Cl)C[C@H]1C[C@H]3[C@H](N(C)C)C(O)=C(C(N)=O)C(=O)[C@@]3(O)C(O)=C1C2=O` [Compound S15-13-203], for which the responders at 3 mg/kg in data set [1] (setting [4]) is 100%. Moreover, the responders at 30 mg/kg in data set [1] (setting [5]) amounted to 100%.
`CC(C)[C@@H](C)NCc1cc(O)c2c(c1Cl)C[C@H]1C[C@H]3[C@H](N(C)C)C(O)=C(C(N)=O)C(=O)[C@@]3(O)C(O)=C1C2=O` [Compound S15-13-8]: the responders at 3 mg/kg in data set [1] (setting [4]) amounted to 67%. Besides, the responders at 30 mg/kg in data set [1] (setting [5]) amounted to 50%.
Regarding `CN(C)[C@@H]1C(O)=C(C(N)=O)C(=O)[C@@]2(O)C(O)=C3C(=O)c4c(O)cc(CNCc5ccccc5)c(F)c4C[C@H]3C[C@@H]12` [Compound S1-14-105], in data set [1] (setting [4]), the responders at 3 mg/kg amounted to 67%. Also, in data set [1] (setting [5]), the responders at 30 mg/kg came to 0%.
For `CN(C)[C@@H]1C(O)=C(C(N)=O)C(=O)[C@@]2(O)C(O)=C3C(=O)c4c(O)cc(CN5CCOCC5)c(Cl)c4C[C@H]3C[C@@H]12` [Compound S15-13-17] the same measures were 100% and 67%.
For `CC(C)[C@@H](C)NCc1cc(O)c2c(c1C(F)(F)F)C[C@H]1C[C@H]3[C@H](N(C)C)C(O)=C(C(N)=O)C(=O)[C@@]3(O)C(O)=C1C2=O` [Compound S25-11-171] the same measures were 83% and 17%.
